# Assay results from PubChem BioAssay AID1963427 (Molecular Pharmacology Branch, DTP, NCI, 2024).
# Tested on: 317291-083-R-J1-PDC complex spheroid growth
# Assay: Anticancer human tumor 317291-083-R-J1-PDC patient-derived soft tissue sarcoma cell line growth inhibition [Asc]
# Conditions: for IC50: curve of first compound; for viability, T/C: stronger effect = lower value
# Method in brief: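 Complex solid-tumor spheroids incorporating human endothelial and mesenchymal stem cells received single agents or combinations over half-log dilution ranges anchored to clinical Cmax.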
# 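Note: compound exposure lasted seven days after spheroids formed for three days.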
# 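Throughout, for viability, T/C: 100% = DMSO vehicle control wells.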
smiles,measurement,setting,value
C=C(F)C(=O)N1CCN(c2nc(OCC3CCCN3C)nc3c2CCN(c2cccc4cccc(Cl)c24)C3)CC1CC#N (centres undefined) + CCN1C(C(=O)NC23CCC(C(=O)O)(CC2)CC3)C(c2cccc(Cl)c2F)C2(C(=O)Nc3cc(Cl)ccc32)C12CCCCC2,IC50,second compound 0.00949 µM,2.51 µM
same,IC50,second compound 0.03 µM,2.83 µM
same,IC50,second compound 0.0949 µM,3.94 µM
same,IC50,second compound 0.3 µM,1.98 µM
same,IC50,second compound 0.949 µM,2.43 µM
same,IC50,second compound 3 µM,2.11 µM
same,"viability, T/C","second compound 0.00949 µM, first compound 0.0316 µM",105%
same,"viability, T/C","second compound 0.00949 µM, first compound 0.1 µM",101%
same,"viability, T/C","second compound 0.00949 µM, first compound 0.316 µM",90.2%
same,"viability, T/C","second compound 0.00949 µM, first compound 1 µM",93.2%
same,"viability, T/C","second compound 0.00949 µM, first compound 3.16 µM",39.3%
same,"viability, T/C","second compound 0.00949 µM, first compound 10 µM",0.31%
same,"viability, T/C","second compound 0.03 µM, first compound 0.0316 µM",92.7%
same,"viability, T/C","second compound 0.03 µM, first compound 0.1 µM",91.8%
same,"viability, T/C","second compound 0.03 µM, first compound 0.316 µM",99.3%
same,"viability, T/C","second compound 0.03 µM, first compound 1 µM",95.2%
same,"viability, T/C","second compound 0.03 µM, first compound 3.16 µM",45.1%
same,"viability, T/C","second compound 0.03 µM, first compound 10 µM",0.14%
same,"viability, T/C","second compound 0.0949 µM, first compound 0.0316 µM",106%
same,"viability, T/C","second compound 0.0949 µM, first compound 0.1 µM",89%
same,"viability, T/C","second compound 0.0949 µM, first compound 0.316 µM",122%
same,"viability, T/C","second compound 0.0949 µM, first compound 1 µM",98.7%
same,"viability, T/C","second compound 0.0949 µM, first compound 3.16 µM",61.9%
same,"viability, T/C","second compound 0.0949 µM, first compound 10 µM",0.14%
same,"viability, T/C","second compound 0.3 µM, first compound 0.0316 µM",106%
same,"viability, T/C","second compound 0.3 µM, first compound 0.1 µM",92.4%
same,"viability, T/C","second compound 0.3 µM, first compound 0.316 µM",92.7%
same,"viability, T/C","second compound 0.3 µM, first compound 1 µM",86.8%
same,"viability, T/C","second compound 0.3 µM, first compound 3.16 µM",24.8%
same,"viability, T/C","second compound 0.3 µM, first compound 10 µM",0.21%
same,"viability, T/C","second compound 0.949 µM, first compound 0.0316 µM",104%
same,"viability, T/C","second compound 0.949 µM, first compound 0.1 µM",93%
same,"viability, T/C","second compound 0.949 µM, first compound 0.316 µM",91.9%
same,"viability, T/C","second compound 0.949 µM, first compound 1 µM",98%
same,"viability, T/C","second compound 0.949 µM, first compound 3.16 µM",36.1%
same,"viability, T/C","second compound 0.949 µM, first compound 10 µM",0.19%
same,"viability, T/C","second compound 3 µM, first compound 0.0316 µM",78.2%
same,"viability, T/C","second compound 3 µM, first compound 0.1 µM",91.9%
same,"viability, T/C","second compound 3 µM, first compound 0.316 µM",85.5%
same,"viability, T/C","second compound 3 µM, first compound 1 µM",64.5%
same,"viability, T/C","second compound 3 µM, first compound 3.16 µM",41.4%
same,"viability, T/C","second compound 3 µM, first compound 10 µM",1.13%
O=C(c1cc(Cc2n[nH]c(=O)c3ccccc23)ccc1F)N1CCN(C(=O)C2CC2)CC1 + CNC(C)C(=O)NC1CN(S(=O)(=O)c2cccc(S(=O)(=O)N3CCC4CCC(C(=O)NC(c5ccccc5)c5ccccc5)N4C(=O)C(NC(=O)C(C)NC)C3)c2)CCC2CCC(C(=O)NC(c3ccccc3)c3ccccc3)N2C1=O,IC50,second compound 0.00316 µM,< 0.0316 µM
same,IC50,second compound 0.01 µM,< 0.0316 µM
same,IC50,second compound 0.0316 µM,3.59 µM
same,IC50,second compound 0.1 µM,0.743 µM
same,IC50,second compound 0.316 µM,0.0316 µM
same,IC50,second compound 1 µM,< 0.0316 µM
same,"viability, T/C","second compound 0.00316 µM, first compound 0.0316 µM",4.34%
same,"viability, T/C","second compound 0.00316 µM, first compound 0.1 µM",4.85%
same,"viability, T/C","second compound 0.00316 µM, first compound 0.316 µM",5.04%
same,"viability, T/C","second compound 0.00316 µM, first compound 1 µM",5.11%
same,"viability, T/C","second compound 0.00316 µM, first compound 3.16 µM",4.26%
same,"viability, T/C","second compound 0.00316 µM, first compound 10 µM",4.12%
same,"viability, T/C","second compound 0.01 µM, first compound 0.0316 µM",37%
same,"viability, T/C","second compound 0.01 µM, first compound 0.1 µM",43.8%
same,"viability, T/C","second compound 0.01 µM, first compound 0.316 µM",55.6%
same,"viability, T/C","second compound 0.01 µM, first compound 1 µM",33.9%
same,"viability, T/C","second compound 0.01 µM, first compound 3.16 µM",16.4%
same,"viability, T/C","second compound 0.01 µM, first compound 10 µM",16.1%
same,"viability, T/C","second compound 0.0316 µM, first compound 0.0316 µM",65.5%
same,"viability, T/C","second compound 0.0316 µM, first compound 0.1 µM",67.9%
same,"viability, T/C","second compound 0.0316 µM, first compound 0.316 µM",62%
same,"viability, T/C","second compound 0.0316 µM, first compound 1 µM",58.1%
same,"viability, T/C","second compound 0.0316 µM, first compound 3.16 µM",55.2%
same,"viability, T/C","second compound 0.0316 µM, first compound 10 µM",23.9%
same,"viability, T/C","second compound 0.1 µM, first compound 0.0316 µM",78.5%
same,"viability, T/C","second compound 0.1 µM, first compound 0.1 µM",71.3%
same,"viability, T/C","second compound 0.1 µM, first compound 0.316 µM",57.7%
same,"viability, T/C","second compound 0.1 µM, first compound 1 µM",54.7%
same,"viability, T/C","second compound 0.1 µM, first compound 3.16 µM",23.4%
same,"viability, T/C","second compound 0.1 µM, first compound 10 µM",34.9%
same,"viability, T/C","second compound 0.316 µM, first compound 0.0316 µM",52%
same,"viability, T/C","second compound 0.316 µM, first compound 0.1 µM",44.4%
same,"viability, T/C","second compound 0.316 µM, first compound 0.316 µM",44.8%
same,"viability, T/C","second compound 0.316 µM, first compound 1 µM",50.8%
same,"viability, T/C","second compound 0.316 µM, first compound 3.16 µM",17.4%
same,"viability, T/C","second compound 0.316 µM, first compound 10 µM",21.4%
same,"viability, T/C","second compound 1 µM, first compound 0.0316 µM",34.3%
same,"viability, T/C","second compound 1 µM, first compound 0.1 µM",47.7%
same,"viability, T/C","second compound 1 µM, first compound 0.316 µM",34.8%
same,"viability, T/C","second compound 1 µM, first compound 1 µM",27.9%
same,"viability, T/C","second compound 1 µM, first compound 3.16 µM",13.2%
same,"viability, T/C","second compound 1 µM, first compound 10 µM",13.8%
